Test results: US20260356819A1, “OXOISOINDOLINYL-SUBSTITUTED […] DERIVATIVE AND USE THEREOF” (GLUETACS THERAPEUTICS (SHANGHAI) CO., LTD., priority 2023, published 2026)

How the values were obtained:
Format in all cases: cell-based
Conditions in all cases: compounds at 50 nM and 500 nM
WEE1 = target: T1, WEE1 (Homo sapiens, UniProt P30291+Q96SW2); test: Western blot degradation of WEE1 in hPBMCs (24 h)
T1 construct: The supernatant was aspirated as the extracted total cell protein; endogenous in cells; host or cells: human peripheral blood mononuclear cells (hPBMCs)
How it was run: (§1)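 Compounds were tested at 50 nM and 500 nM on hPBMCs (1×10^6 cells/mL) for 24 h, alongside DMSO. Proteins were detected by Western blot after denaturation at 95 °C; remaining protein computed from normalised band grayscale.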

IKZF1 = target: T2, IKZF1 (Homo sapiens, UniProt Q13422+Q96SW2); test: Western blot degradation of IKZF1 in hPBMCs (24 h)
T2 construct: The supernatant was aspirated as the extracted total cell protein; endogenous in cells; host or cells: human peripheral blood mononuclear cells (hPBMCs)
How it was run: as §1

IKZF2 = target: T3, IKZF2 (Homo sapiens, UniProt Q96SW2+Q9UKS7); test: Western blot degradation of IKZF2 in hPBMCs (24 h)
T3 construct: The supernatant was aspirated as the extracted total cell protein; endogenous in cells; host or cells: human peripheral blood mononuclear cells (hPBMCs)
How it was run: as §1

IKZF3 = target: T4, IKZF3 (Homo sapiens, UniProt Q96SW2+Q9UKT9); test: Western blot degradation of IKZF3 in hPBMCs (24 h)
T4 construct: The supernatant was aspirated as the extracted total cell protein; endogenous in cells; host or cells: human peripheral blood mononuclear cells (hPBMCs)
How it was run: as §1

CK1α = target: T5, CK1α (Homo sapiens, UniProt P48729+Q96SW2); test: Western blot degradation of CK1α in hPBMCs (24 h)
T5 construct: The supernatant was aspirated as the extracted total cell protein; endogenous in cells; host or cells: human peripheral blood mononuclear cells (hPBMCs)
How it was run: as §1

GSPT1 = target: T6, GSPT1 (Homo sapiens, UniProt P15170+Q96SW2); test: Western blot degradation of GSPT1 in hPBMCs (24 h)
T6 construct: The supernatant was aspirated as the extracted total cell protein; endogenous in cells; host or cells: human peripheral blood mononuclear cells (hPBMCs)
How it was run: as §1

T6 sequence (P15170 whole entry): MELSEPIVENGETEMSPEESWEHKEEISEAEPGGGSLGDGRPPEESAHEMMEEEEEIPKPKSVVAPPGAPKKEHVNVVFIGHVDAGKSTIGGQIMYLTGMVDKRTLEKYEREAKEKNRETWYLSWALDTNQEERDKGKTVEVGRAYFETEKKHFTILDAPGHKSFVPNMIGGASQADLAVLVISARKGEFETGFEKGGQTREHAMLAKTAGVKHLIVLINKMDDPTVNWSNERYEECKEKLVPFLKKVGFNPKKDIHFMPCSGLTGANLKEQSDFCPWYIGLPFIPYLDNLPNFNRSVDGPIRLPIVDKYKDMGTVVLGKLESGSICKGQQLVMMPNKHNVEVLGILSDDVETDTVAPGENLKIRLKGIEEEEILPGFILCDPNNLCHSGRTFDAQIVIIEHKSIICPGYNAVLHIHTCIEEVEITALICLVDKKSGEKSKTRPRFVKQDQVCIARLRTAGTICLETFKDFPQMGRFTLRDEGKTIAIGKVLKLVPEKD
T6 sequence (Q96SW2 whole entry): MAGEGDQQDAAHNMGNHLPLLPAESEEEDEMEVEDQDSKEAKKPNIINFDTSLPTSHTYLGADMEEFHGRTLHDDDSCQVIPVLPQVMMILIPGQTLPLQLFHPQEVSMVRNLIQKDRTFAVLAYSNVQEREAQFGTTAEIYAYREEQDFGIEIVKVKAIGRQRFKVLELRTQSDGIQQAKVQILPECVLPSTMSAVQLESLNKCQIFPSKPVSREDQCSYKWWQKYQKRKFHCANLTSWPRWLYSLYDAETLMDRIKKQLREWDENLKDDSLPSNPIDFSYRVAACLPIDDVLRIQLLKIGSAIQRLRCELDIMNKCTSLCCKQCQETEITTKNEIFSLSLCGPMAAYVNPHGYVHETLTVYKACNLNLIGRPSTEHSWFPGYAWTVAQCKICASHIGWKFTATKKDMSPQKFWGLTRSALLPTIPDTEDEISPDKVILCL
T6 sequence (Q16531 whole entry partner): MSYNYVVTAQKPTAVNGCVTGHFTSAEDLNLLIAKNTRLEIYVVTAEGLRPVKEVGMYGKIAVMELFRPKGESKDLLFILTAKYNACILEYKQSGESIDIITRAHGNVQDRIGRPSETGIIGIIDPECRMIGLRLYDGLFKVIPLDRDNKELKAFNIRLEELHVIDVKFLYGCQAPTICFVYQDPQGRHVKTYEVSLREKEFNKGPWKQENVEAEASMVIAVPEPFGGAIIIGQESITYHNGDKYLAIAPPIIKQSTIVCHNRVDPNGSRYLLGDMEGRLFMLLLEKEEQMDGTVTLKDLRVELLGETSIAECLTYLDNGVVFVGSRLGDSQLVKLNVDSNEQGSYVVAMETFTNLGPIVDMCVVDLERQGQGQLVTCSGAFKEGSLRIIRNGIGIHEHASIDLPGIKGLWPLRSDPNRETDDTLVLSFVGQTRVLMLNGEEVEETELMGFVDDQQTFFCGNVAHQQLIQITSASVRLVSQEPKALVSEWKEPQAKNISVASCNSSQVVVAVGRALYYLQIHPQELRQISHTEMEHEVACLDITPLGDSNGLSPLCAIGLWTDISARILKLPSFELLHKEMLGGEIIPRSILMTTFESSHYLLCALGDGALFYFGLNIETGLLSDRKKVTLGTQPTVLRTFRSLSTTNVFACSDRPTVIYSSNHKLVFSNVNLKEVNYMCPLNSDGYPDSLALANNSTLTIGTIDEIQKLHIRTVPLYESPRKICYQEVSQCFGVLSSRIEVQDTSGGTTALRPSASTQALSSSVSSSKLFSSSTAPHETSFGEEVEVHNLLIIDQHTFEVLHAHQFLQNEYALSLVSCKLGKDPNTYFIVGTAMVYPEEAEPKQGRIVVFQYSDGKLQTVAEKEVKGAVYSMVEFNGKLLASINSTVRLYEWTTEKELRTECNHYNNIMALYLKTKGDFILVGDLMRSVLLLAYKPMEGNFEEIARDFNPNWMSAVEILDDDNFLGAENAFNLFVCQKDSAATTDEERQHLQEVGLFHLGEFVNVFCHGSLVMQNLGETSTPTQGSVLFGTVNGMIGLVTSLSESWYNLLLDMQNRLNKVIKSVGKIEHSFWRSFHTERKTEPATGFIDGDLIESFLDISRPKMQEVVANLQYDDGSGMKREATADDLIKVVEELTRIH
T3 sequence (Q9UKS7 whole entry): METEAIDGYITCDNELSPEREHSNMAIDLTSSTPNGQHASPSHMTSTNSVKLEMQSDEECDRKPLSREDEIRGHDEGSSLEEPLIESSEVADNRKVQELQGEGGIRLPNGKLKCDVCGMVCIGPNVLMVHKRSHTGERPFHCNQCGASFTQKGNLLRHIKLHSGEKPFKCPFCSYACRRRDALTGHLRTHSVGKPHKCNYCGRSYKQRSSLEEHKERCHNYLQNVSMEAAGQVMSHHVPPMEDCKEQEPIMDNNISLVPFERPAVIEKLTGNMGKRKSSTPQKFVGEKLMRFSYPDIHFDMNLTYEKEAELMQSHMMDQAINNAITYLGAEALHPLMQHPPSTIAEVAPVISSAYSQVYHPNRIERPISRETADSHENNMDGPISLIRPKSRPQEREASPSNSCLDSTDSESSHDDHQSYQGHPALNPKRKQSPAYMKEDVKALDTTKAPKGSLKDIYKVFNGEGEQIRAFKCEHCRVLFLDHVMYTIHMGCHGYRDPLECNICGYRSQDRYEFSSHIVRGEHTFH
T3 sequence (Q96SW2 whole entry): as the sequence (Q96SW2 whole entry) above
T3 sequence (Q16531 whole entry partner): as the sequence (Q16531 whole entry partner) above
T4 sequence (Q9UKT9 whole entry): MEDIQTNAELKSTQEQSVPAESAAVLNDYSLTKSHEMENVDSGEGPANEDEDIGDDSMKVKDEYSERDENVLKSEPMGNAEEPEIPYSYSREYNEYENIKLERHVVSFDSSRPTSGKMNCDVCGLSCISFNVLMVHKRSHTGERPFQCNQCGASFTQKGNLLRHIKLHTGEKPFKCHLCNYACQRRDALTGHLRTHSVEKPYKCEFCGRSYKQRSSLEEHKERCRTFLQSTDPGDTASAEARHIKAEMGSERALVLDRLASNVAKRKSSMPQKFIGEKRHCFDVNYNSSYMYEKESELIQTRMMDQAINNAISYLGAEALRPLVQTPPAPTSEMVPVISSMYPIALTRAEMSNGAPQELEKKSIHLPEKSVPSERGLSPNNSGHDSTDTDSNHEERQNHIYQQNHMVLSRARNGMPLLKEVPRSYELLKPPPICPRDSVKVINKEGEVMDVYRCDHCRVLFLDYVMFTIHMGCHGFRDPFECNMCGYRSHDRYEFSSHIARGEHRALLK
T4 sequence (Q96SW2 whole entry): as the sequence (Q96SW2 whole entry) above
T4 sequence (Q16531 whole entry partner): as the sequence (Q16531 whole entry partner) above
T1 sequence (P30291 whole entry): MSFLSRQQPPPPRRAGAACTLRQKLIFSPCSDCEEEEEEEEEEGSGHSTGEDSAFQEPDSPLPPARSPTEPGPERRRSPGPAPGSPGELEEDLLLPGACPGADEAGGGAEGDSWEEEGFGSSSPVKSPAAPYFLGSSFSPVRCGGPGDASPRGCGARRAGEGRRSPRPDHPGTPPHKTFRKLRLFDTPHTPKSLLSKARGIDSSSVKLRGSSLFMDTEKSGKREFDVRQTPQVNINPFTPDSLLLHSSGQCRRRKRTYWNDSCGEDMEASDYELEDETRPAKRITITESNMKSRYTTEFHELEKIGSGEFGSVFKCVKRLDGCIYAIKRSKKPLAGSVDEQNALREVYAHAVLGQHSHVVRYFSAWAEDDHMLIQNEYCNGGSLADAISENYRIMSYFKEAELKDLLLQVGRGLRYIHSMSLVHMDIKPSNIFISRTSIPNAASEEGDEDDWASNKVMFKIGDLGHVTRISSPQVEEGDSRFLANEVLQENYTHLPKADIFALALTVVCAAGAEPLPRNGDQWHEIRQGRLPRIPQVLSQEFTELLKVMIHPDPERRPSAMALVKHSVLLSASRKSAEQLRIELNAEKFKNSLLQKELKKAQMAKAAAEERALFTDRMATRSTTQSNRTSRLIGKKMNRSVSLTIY
T1 sequence (Q96SW2 whole entry): as the sequence (Q96SW2 whole entry) above
T1 sequence (Q16531 whole entry partner): as the sequence (Q16531 whole entry partner) above
T2 sequence (Q13422 whole entry): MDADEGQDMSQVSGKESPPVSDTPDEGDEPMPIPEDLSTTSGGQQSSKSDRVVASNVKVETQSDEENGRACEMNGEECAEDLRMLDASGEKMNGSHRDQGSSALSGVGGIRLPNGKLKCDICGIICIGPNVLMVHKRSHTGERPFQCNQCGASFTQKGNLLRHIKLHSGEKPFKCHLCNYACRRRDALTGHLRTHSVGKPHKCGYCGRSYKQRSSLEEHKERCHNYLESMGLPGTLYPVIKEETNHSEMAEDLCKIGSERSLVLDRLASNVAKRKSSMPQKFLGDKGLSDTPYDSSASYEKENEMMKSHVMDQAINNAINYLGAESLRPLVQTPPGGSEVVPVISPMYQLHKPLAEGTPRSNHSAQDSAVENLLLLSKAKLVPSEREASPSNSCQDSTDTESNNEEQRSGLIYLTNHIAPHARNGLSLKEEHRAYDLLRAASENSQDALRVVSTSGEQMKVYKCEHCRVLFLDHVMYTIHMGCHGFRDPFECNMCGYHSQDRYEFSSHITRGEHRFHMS
T2 sequence (Q96SW2 whole entry): as the sequence (Q96SW2 whole entry) above
T2 sequence (Q16531 whole entry partner): as the sequence (Q16531 whole entry partner) above

Row | SMILES | WEE1 substrate protein remaining % (WEE1) | IKZF1 substrate protein remaining % (IKZF1) | IKZF2 substrate protein remaining % (IKZF2) | IKZF3 substrate protein remaining % (IKZF3) | CK1α substrate protein remaining % (CK1α) | GSPT1 substrate protein remaining % (GSPT1)
1 | O=C1CCN(N2Cc3cc(CN4CCCN(c5cccc(Cl)c5Cl)CC4)ccc3C2=O)C(=O)N1 [GT-07431, 1-(5-((4-(2,3-dichlorophenyl)-1,4-diazepan-1-yl)methyl)-1-oxoisoindolin-2-yl)dihydropyrimidine-2,4(1H,3H)-dione] | B (80%< substrate protein remaining % ≤100%) | A (0% ≤ substrate protein remaining % ≤80%) | B (80%< substrate protein remaining % ≤100%) | B (80%< substrate protein remaining % ≤100%) | A (0% ≤ substrate protein remaining % ≤80%) | B (80%< substrate protein remaining % ≤100%)
2 | CC1CN(C(c2ccccc2)c2ccccc2)CC(C)N1Cc1ccc2c(c1)CN(N1CCC(=O)NC1=O)C2=O (stereo not drawn) [GT-07433, 1-(5-((4-benzhydryl-2,6-dimethylpiperazin-1-yl)methyl)-1-oxoisoindolin-2-yl)dihydropyrimidine-2,4(1H,3H)-dione] | B (80%< substrate protein remaining % ≤100%) | B (80%< substrate protein remaining % ≤100%) | A (0% ≤ substrate protein remaining % ≤80%) | B (80%< substrate protein remaining % ≤100%) | A (0% ≤ substrate protein remaining % ≤80%) | B (80%< substrate protein remaining % ≤100%)
3 | O=C1CCN(N2C(=O)c3ccc(CN4CC5CC(C4)N5c4cccc(Cl)c4Cl)cc3C2=O)C(=O)N1 [GT-07434, 5-((6-(2,3-dichlorophenyl)-3,6-diazabicyclo[3.1.1]heptan-3-yl)methyl)-2-(2,4-dioxotetrahydropyrimidin-1(2H)-yl)isoindoline-1,3-dione] | B (80%< substrate protein remaining % ≤100%) | B (80%< substrate protein remaining % ≤100%) | B (80%< substrate protein remaining % ≤100%) | B (80%< substrate protein remaining % ≤100%) | A (0% ≤ substrate protein remaining % ≤80%) | B (80%< substrate protein remaining % ≤100%)
4 | O=C1CCN(N2C(=O)c3ccc(CN4C[C@H]5C[C@@H]4CN5c4cccc(Cl)c4Cl)cc3C2=O)C(=O)N1 [GT-07435, 5-(((1R,4R)-5-(2,3-dichlorophenyl)-2,5-diazabicyclo[2.2.1]heptan-2-yl)methyl)-2-(2,4-dioxotetrahydropyrimidin-1(2H)-yl)isoindoline-1,3-dione] | B (80%< substrate protein remaining % ≤100%) | B (80%< substrate protein remaining % ≤100%) | B (80%< substrate protein remaining % ≤100%) | B (80%< substrate protein remaining % ≤100%) | A (0% ≤ substrate protein remaining % ≤80%) | B (80%< substrate protein remaining % ≤100%)
5 | O=C1CCN(N2C(=O)c3ccc(CN4CC5CCC4CN5c4cccc(Cl)c4Cl)cc3C2=O)C(=O)N1 (stereo not drawn) [GT-07436, 5-((5-(2,3-dichlorophenyl)-2,5-diazabicyclo[2.2.2]octan-2-yl)methyl)-2-(2,4-dioxotetrahydropyrimidin-1(2H)-yl)isoindoline-1,3-dione] | B (80%< substrate protein remaining % ≤100%) | B (80%< substrate protein remaining % ≤100%) | A (0% ≤ substrate protein remaining % ≤80%) | B (80%< substrate protein remaining % ≤100%) | A (0% ≤ substrate protein remaining % ≤80%) | B (80%< substrate protein remaining % ≤100%)
6 | O=C1CCN(N2C(=O)c3ccc(CN4CC5CCC(C4)N5c4cccc(Cl)c4Cl)cc3C2=O)C(=O)N1 [GT-07437, 5-((8-(2,3-dichlorophenyl)-3,8-diazabicyclo[3.2.1]octan-3-yl)methyl)-2-(2,4-dioxotetrahydropyrimidin-1(2H)-yl)isoindoline-1,3-dione] | A (0% ≤ substrate protein remaining % ≤80%) | B (80%< substrate protein remaining % ≤100%) | B (80%< substrate protein remaining % ≤100%) | B (80%< substrate protein remaining % ≤100%) | A (0% ≤ substrate protein remaining % ≤80%) | A (0% ≤ substrate protein remaining % ≤80%)
7 | O=C1CCN(N2C(=O)c3ccc(CN4C5CCC4CN(c4cccc(Cl)c4Cl)C5)cc3C2=O)C(=O)N1 [GT-07438, 5-((3-(2,3-dichlorophenyl)-3,8-diazabicyclo[3.2.1]octan-8-yl)methyl)-2-(2,4-dioxotetrahydropyrimidin-1(2H)-yl)isoindoline-1,3-dione] | A (0% ≤ substrate protein remaining % ≤80%) | B (80%< substrate protein remaining % ≤100%) | B (80%< substrate protein remaining % ≤100%) | B (80%< substrate protein remaining % ≤100%) | A (0% ≤ substrate protein remaining % ≤80%) | A (0% ≤ substrate protein remaining % ≤80%)
8 | O=C1CCN(N2C(=O)c3ccc(CN4CCCN(c5cccc(Cl)c5Cl)CC4)cc3C2=O)C(=O)N1 [GT-07439, 5-((4-(2,3-dichlorophenyl)-1,4-diazepan-1-yl)methyl)-2-(2,4-dioxotetrahydropyrimidin-1(2H)-yl)isoindoline-1,3-dione] | B (80%< substrate protein remaining % ≤100%) | B (80%< substrate protein remaining % ≤100%) | B (80%< substrate protein remaining % ≤100%) | B (80%< substrate protein remaining % ≤100%) | A (0% ≤ substrate protein remaining % ≤80%) | A (0% ≤ substrate protein remaining % ≤80%)
9 | O=C1CCN(N2C(=O)c3ccc(CN4CC=C(c5ccnc(Cl)c5Cl)CC4)cc3C2=O)C(=O)N1 [GT-07440, 5-((2′,3′-dichloro-3,6-dihydro-[4,4′-bipyridin]-1(2H)-yl)methyl)-2-(2,4-dioxotetrahydropyrimidin-1(2H)-yl)isoindoline-1,3-dione] | A (0% ≤ substrate protein remaining % ≤80%) | B (80%< substrate protein remaining % ≤100%) | B (80%< substrate protein remaining % ≤100%) | B (80%< substrate protein remaining % ≤100%) | A (0% ≤ substrate protein remaining % ≤80%) | A (0% ≤ substrate protein remaining % ≤80%)
